Our source for the EC50 values is patent US11896591B2, “Compositions and methods for preparing and using mitochondrial uncouplers” (UNIVERSITY OF VIRGINIA PATENT FOUNDATION, priority 2017, dated 2024).

A value given as a limit tells only on which side of the number the result lay.

In the test the test system is whole cells. The test is described as follows: Oxygen consumption rate (OCR) in whole cells, Seahorse XF-24 Flux Analyzer. It counts as cell-based. The note with it: binned EC50 values; increase in oxygen consumption rate in whole cells. As for the experimental part: Biological activities of the compounds synthesized is determined by determining increase in oxygen consumption rate (OCR).
OCR is measured using a Seahorse XF-24 Flux Analyzer (Seahorse Biosciences, North Billerica, MA). NMuLi, C2C12, and L6 cells are seeded in a Seahorse 24-well tissue culture plate at a density of 3.5×10^4 cells/well, isolated cardiomyocytes at a density of 4×10^4 cells/well, and human primary fibroblasts at a density of 1.1×10^4 cells/well. The cells are then allowed to adhere for 24 h. […] Compounds are injected during the assay and OCR is measured using 2 min measurement periods.
2-3 wells are used per condition and averaged over three plates (n=6-9). Statistical significance is determined by two-way ANOVA with Bonferroni's posttest.

Take `Fc1ccccc1Nc1nc2nonc2nc1Nc1cccc(C(F)(F)F)c1` [Compound 4v, N^5-(2-fluorophenyl)-N^6-(3-(trifluoromethyl)phenyl)-[1,2,5]oxadiazolo[3,4-b]pyrazine-5,6-diamine]: the 50% effective concentration (EC50) is below 5 µM.

As for `Fc1ccccc1Nc1nc2nonc2nc1Nc1ccc(C(F)(F)F)cc1` [Compound 4w, N^5-(2-fluorophenyl)-N^6-(4-(trifluoromethyl)phenyl)-[1,2,5]oxadiazolo[3,4-b]pyrazine-5,6-diamine], the EC50 is below 5 µM.

Compound `FC(F)(F)c1ccc(Nc2nc3nonc3nc2Nc2cccc(C(F)(F)F)c2)cc1` [Compound 4x, N^5-(3-(trifluoromethyl)phenyl)-N^6-(4-(trifluoromethyl)phenyl)-[1,2,5]oxadiazolo[3,4-b]pyrazine-5,6-diamine] came in with an EC50 below 5 µM.

On to `COC(=O)c1ccc(Nc2nc3nonc3nc2Nc2ccccc2F)cc1` [Compound 4y, Methyl 4-((6-((2-fluorophenyl)amino)-[1,2,5]oxadiazolo[3,4-b]pyrazin-5-yl)amino)benzoate], for which the EC50 was below 5 µM.

The compound `Oc1ccc(F)c(Nc2nc3nonc3nc2Nc2ccccc2F)c1` [Compound 4z, 4-Fluoro-3-((6-((2-fluorophenyl)amino)-[1,2,5]oxadiazolo[3,4-b]pyrazin-5-yl)amino)phenol] yielded an EC50 above 20 µM.

The compound `CNc1nc2nonc2nc1Nc1ccccc1F` [Compound 7a, N^5-(2-fluorophenyl)-N^6-methyl-[1,2,5]oxadiazolo[3,4-b]pyrazine-5,6-diamine] gave an EC50 of 5 to 20 µM.

Compound `CCNc1nc2nonc2nc1Nc1ccccc1F` [Compound 7b, N^5-ethyl-N^6-(2-fluorophenyl)-[1,2,5]oxadiazolo[3,4-b]pyrazine-5,6-diamine] gave an EC50 of 5 to 20 µM.

Consider `CCCNc1nc2nonc2nc1Nc1ccccc1F` [Compound 7c, N^5-(2-fluorophenyl)-N^6-propyl-[1,2,5]oxadiazolo[3,4-b]pyrazine-5,6-diamine], for which the EC50 fell in the range of 5 to 20 µM.

The compound `Fc1ccccc1Nc1nc2nonc2nc1NCCC(F)(F)F` [Compound 7d, N^5-(2-fluorophenyl)-N^6-(3,3,3-trifluoropropyl)-[1,2,5]oxadiazolo[3,4-b]pyrazine-5,6-diamine] displayed an EC50 above 20 µM.

The compound `Fc1ccccc1Nc1nc2nonc2nc1NC1CCCCC1` [Compound 7f, N^5-cyclohexyl-N^6-(2-fluorophenyl)-[1,2,5]oxadiazolo[3,4-b]pyrazine-5,6-diamine] returned an EC50 of 5 to 20 µM.

For the compound `Fc1ccccc1Nc1nc2nsnc2nc1Nc1ccccc1F` [Compound 10, N^5,N^6-bis(2-fluorophenyl)-[1,2,5]thiadiazolo[3,4-b]pyrazine-5,6-diamine], the EC50 fell in the range of 5 to 20 µM.

Compound `Fc1ccccc1Nc1nc2nc(C(F)(F)F)[nH]c2nc1Nc1ccccc1F` [Compound 12a, N^5,N^6-bis(2-fluorophenyl)-2-(trifluoromethyl)-1H-imidazo[4,5-b]pyrazine-5,6-diamine] displayed an EC50 of 5 to 20 µM.

The compound `Fc1ccc(C(F)(F)F)cc1Nc1nc2nc(C(F)(F)F)[nH]c2nc1Nc1cc(C(F)(F)F)ccc1F` [Compound 12b, N^5,N^6-bis(2-fluoro-5-(trifluoromethyl)phenyl)-2-(trifluoromethyl)-1H-imidazo[4,5-b]pyrazine-5,6-diamine] came in with an EC50 of 5 to 20 µM.

`FC(F)(F)c1cc(Nc2nc3nc(C(F)(F)F)[nH]c3nc2Nc2cc(C(F)(F)F)cc(C(F)(F)F)c2)cc(C(F)(F)F)c1` [Compound 12d, N^5,N^6-bis(3,5-bis(trifluoromethyl)phenyl)-2-(trifluoromethyl)-1H-imidazo[4,5-b]pyrazine-5,6-diamine] displayed an EC50 of 5 to 20 µM.

For the compound `Fc1c(Nc2nc3nc(C(F)(F)F)[nH]c3nc2Nc2cccc(C(F)(F)F)c2F)cccc1C(F)(F)F` [Compound 12e, N^5,N^6-bis(2-fluoro-3-(trifluoromethyl)phenyl)-2-(trifluoromethyl)-1H-imidazo[4,5-b]pyrazine-5,6-diamine], the concentration for a half-maximal effect (EC50) lay within 5 to 20 µM.

As for `Fc1cc(Nc2nc3nc(C(F)(F)F)[nH]c3nc2Nc2ccc(OC(F)(F)F)c(F)c2)ccc1OC(F)(F)F` [Compound 12f, N^5,N^6-bis(3-fluoro-4-(trifluoromethoxy)phenyl)-2-(trifluoromethyl)-1H-imidazo[4,5-b]pyrazine-5,6-diamine], the EC50 lay within 5 to 20 µM.

As to `Fc1cc(C(F)(F)F)ccc1Nc1nc2nc(C(F)(F)F)[nH]c2nc1Nc1ccc(C(F)(F)F)cc1F` [Compound 12g, N^5,N^6-bis(2-fluoro-4-(trifluoromethyl)phenyl)-2-(trifluoromethyl)-1H-imidazo[4,5-b]pyrazine-5,6-diamine], the EC50 is below 5 µM.

As for `Fc1cc(Nc2nc3nc(C(F)(F)F)[nH]c3nc2Nc2ccc(C(F)(F)F)c(F)c2)ccc1C(F)(F)F` [Compound 12h, N^5,N^6-bis(3-fluoro-4-(trifluoromethyl)phenyl)-2-(trifluoromethyl)-1H-imidazo[4,5-b]pyrazine-5,6-diamine], the EC50 lay in the range of 5 to 20 µM.

`Fc1cc(F)cc(Nc2nc3nc(C(F)(F)F)[nH]c3nc2Nc2cc(F)cc(F)c2)c1` [Compound 12i, N^5,N^6-bis(3,5-difluorophenyl)-2-(trifluoromethyl)-1H-imidazo[4,5-b]pyrazine-5,6-diamine] returned an EC50 of 5 to 20 µM.

`Fc1cccc(Nc2nc3nc(C(F)(F)F)[nH]c3nc2Nc2cccc(F)c2F)c1F` [Compound 12j, N^5,N^6-bis(2,3-difluorophenyl)-2-(trifluoromethyl)-1H-imidazo[4,5-b]pyrazine-5,6-diamine] yielded an EC50 below 5 µM.

In turn, `Cc1ccc(Nc2nc3nc(C(F)(F)F)[nH]c3nc2Nc2ccc(C)cc2)cc1` [Compound 12k, N^5,N^6-di-p-tolyl-2-(trifluoromethyl)-1H-imidazo[4,5-b]pyrazine-5,6-diamine] displayed a concentration for a half-maximal effect (EC50) above 20 µM.

Take `FC(F)(F)c1nc2nc(Nc3ccccc3)c(Nc3ccccc3)nc2[nH]1` [Compound 12l, N^5,N^6-diphenyl-2-(trifluoromethyl)-1H-imidazo[4,5-b]pyrazine-5,6-diamine]: the EC50 was above 20 µM.

With `FC(F)(F)Oc1ccc(Nc2nc3nc(C(F)(F)F)[nH]c3nc2Nc2ccc(OC(F)(F)F)cc2)cc1` [Compound 12m, N^5,N^6-bis(4-(trifluoromethoxy)phenyl)-2-(trifluoromethyl)-1H-imidazo[4,5-b]pyrazine-5,6-diamine], the EC50 is 5 to 20 µM.

Take `COc1ccc(Nc2nc3nc(C(F)(F)F)[nH]c3nc2Nc2ccc(OC)cc2)cc1` [Compound 12n, N^5,N^6-bis(4-methoxyphenyl)-2-(trifluoromethyl)-1H-imidazo[4,5-b]pyrazine-5,6-diamine]: the EC50 is above 20 µM.

`Fc1cccc(Nc2nc3[nH]c(C(F)(F)F)nc3nc2Nc2ccccc2F)c1` [Compound 12o, N^5-(2-fluorophenyl)-N^6-(3-fluorophenyl)-2-(trifluoromethyl)-1H-imidazo[4,5-b]pyrazine-5,6-diamine]: the EC50 was in the range of 5 to 20 µM.

`Fc1ccccc1Nc1nc2nc(C(F)(F)F)[nH]c2nc1Nc1ccc(OC(F)(F)F)cc1` [Compound 12p, N^5-(2-fluorophenyl)-N^6-(4-(trifluoromethoxy)phenyl)-2-(trifluoromethyl)-1H-imidazo[4,5-b]pyrazine-5,6-diamine] registered an EC50 below 5 µM.

Regarding `Fc1ccccc1Nc1nc2nc(C(F)(F)F)[nH]c2nc1Nc1cc(C(F)(F)F)cc(C(F)(F)F)c1` [Compound 12q, N^5-(2-fluorophenyl)-N^6-(3,5-bis(trifluoromethyl)phenyl)-2-(trifluoromethyl)-1H-imidazo[4,5-b]pyrazine-5,6-diamine], the EC50 lay in the range of 5 to 20 µM.

The compound `COc1ccc(Nc2nc3[nH]c(C(F)(F)F)nc3nc2Nc2ccccc2F)cc1` [Compound 12r, N^5-(2-fluorophenyl)-N^6-(4-methoxyphenyl)-2-(trifluoromethyl)-1H-imidazo[4,5-b]pyrazine-5,6-diamine] returned an EC50 above 20 µM.

The compound `Fc1ccccc1Nc1nc2nc(C(F)(F)F)[nH]c2nc1Nc1ccccc1` [Compound 12s, N^5-(2-fluorophenyl)-N^6-phenyl-2-(trifluoromethyl)-1H-imidazo[4,5-b]pyrazine-5,6-diamine] yielded an EC50 of 5 to 20 µM.

Consider `Fc1ccccc1Nc1nc2nc(C(F)(F)F)[nH]c2nc1Nc1cccc(C(F)(F)F)c1F` [Compound 12t, N^5-(2-fluorophenyl)-N^6-(2-fluoro-3-(trifluoromethyl)phenyl)-2-(trifluoromethyl)-1H-imidazo[4,5-b]pyrazine-5,6-diamine], for which the EC50 was below 5 µM.

The compound `Cc1ccc(Nc2nc3[nH]c(C(F)(F)F)nc3nc2Nc2ccccc2F)cc1` [Compound 12u, N^5-(2-fluorophenyl)-N^6-(p-tolyl)-2-(trifluoromethyl)-1H-imidazo[4,5-b]pyrazine-5,6-diamine] showed an EC50 of 5 to 20 µM.

Turning to `Fc1ccccc1Nc1nc2nc(C(F)(F)F)[nH]c2nc1NC1CCCCC1` [Compound 12v, N^5-(2-fluorophenyl)-N^6-cyclohexyl-2-(trifluoromethyl)-1H-imidazo[4,5-b]pyrazine-5,6-diamine], the EC50 was above 20 µM.

`CCCNc1nc2[nH]c(C(F)(F)F)nc2nc1Nc1ccccc1F` [Compound 12w, N^5-(2-fluorophenyl)-N^6-propyl-2-(trifluoromethyl)-1H-imidazo[4,5-b]pyrazine-5,6-diamine]: the EC50 was above 20 µM.

In turn, `Cn1c(C(F)(F)F)nc2nc(Nc3ccccc3F)c(Nc3ccccc3F)nc21` [Compound 13a, N^5,N^6-bis(2-fluorophenyl)-1-methyl-2-(trifluoromethyl)-imidazo[4,5-b]pyrazine-5,6-diamine] had an EC50 above 20 µM.

For `Cn1c(C(F)(F)F)nc2nc(Nc3cc(C(F)(F)F)ccc3F)c(Nc3cc(C(F)(F)F)ccc3F)nc21` [Compound 13b, N^5,N^6-bis(2-fluoro-5-(trifluoromethyl)phenyl)-1-methyl-2-(trifluoromethyl)-imidazo[4,5-b]pyrazine-5,6-diamine], the EC50 fell in the range of 5 to 20 µM.

Broadly, the EC50 is the concentration that produces a half-maximal response. High values mean lower potency in that assay, low ones higher potency in that assay.
